Experimental data from US20260167620A1, “MULTIFUNCTIONAL COMPOUND CAPABLE OF DEGRADING BTK KINASE, AND COMPOSITION AND USE” (HANGZHOU HEALZEN THERAPEUTICS CO., LTD., priority 2021, published 2026).

Target: T1, BTK (Homo sapiens, UniProt Q06187)
T1 construct: endogenous in cells; host or cells: Mino cells
Assay: BTK degradation activity test in Mino cells (Westernblot or Elisa)
Format: cell-based
Details: 24-72 h incubation
Protocol: The Mino cell line cells are 0.5˜1 million/well in 6-well plates. The compounds are diluted to different concentrations, added to the plate, and after 24-72 h of incubation, the cells are collected. After the cells were lysed, the total protein concentration in each well was determined with a BCA kit. The amount of BTK is determined using the Westernblot or Elisa method.

T1 sequence (Q06187 whole entry): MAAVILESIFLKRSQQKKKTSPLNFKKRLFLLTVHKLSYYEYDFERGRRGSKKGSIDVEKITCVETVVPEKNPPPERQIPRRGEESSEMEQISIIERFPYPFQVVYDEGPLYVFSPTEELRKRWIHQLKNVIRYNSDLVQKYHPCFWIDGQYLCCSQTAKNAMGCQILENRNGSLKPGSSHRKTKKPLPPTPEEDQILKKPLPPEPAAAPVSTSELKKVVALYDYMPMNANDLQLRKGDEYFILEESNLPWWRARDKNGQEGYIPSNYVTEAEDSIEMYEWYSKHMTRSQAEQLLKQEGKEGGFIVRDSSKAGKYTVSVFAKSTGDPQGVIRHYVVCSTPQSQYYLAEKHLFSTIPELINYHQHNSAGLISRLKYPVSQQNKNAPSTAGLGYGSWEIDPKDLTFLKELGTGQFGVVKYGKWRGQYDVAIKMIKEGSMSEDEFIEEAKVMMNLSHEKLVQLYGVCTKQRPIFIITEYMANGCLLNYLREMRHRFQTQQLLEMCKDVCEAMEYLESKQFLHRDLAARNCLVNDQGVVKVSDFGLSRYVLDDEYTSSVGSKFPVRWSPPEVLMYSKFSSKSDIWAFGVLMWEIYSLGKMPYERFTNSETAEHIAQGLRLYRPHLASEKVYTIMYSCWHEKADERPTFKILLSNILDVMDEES

SMILES | DC50
CN1CCN(c2nnc(C(N)=O)c(Nc3ccc(C4CCN(CC5CCN(c6ccc7c(c6)C(=O)N(C6CCC(=O)NC6=O)C7=O)C5)CC4)cc3)n2)CC1 (centres unmarked) [Compound 018, 5-((4-(1-((1-(2-(2,6-dioxopiperidin-3-yl)-1,3-dioxoisoindolin-5-yl)pyrrolidin-3-yl)methyl)piperidin-4-yl)phenyl)amino)-3-(4-methylpiperazin-1-yl)-1,2,4-triazine-6-carboxamide] | < 10 nM
NC(=O)c1nnc(N2CCCCC2)nc1Nc1ccc(N2CC(CN3CCN(c4ccc5c(c4)C(=O)N(C4CCC(=O)NC4=O)C5=O)CC3)C2)cc1 (centres unmarked) [Compound 049, 5-((4-(3-((4-(2-(2,6-dioxopiperidin-3-yl)-1,3-dioxoisoindolin-5-yl)piperazin-1-yl)methyl)azetidin-1-yl)phenyl)amino)-3-(piperidin-1-yl)-1,2,4-triazine-6-carboxamide] | < 10 nM
NC(=O)c1cnc(N[C@H]2CCCC[C@H]2N)nc1Nc1ccc(C2CCN(CC3CCN(c4ccc5c(c4)C(=O)N(C4CCC(=O)NC4=O)C5=O)C3)CC2)cc1 (stereo partly drawn) [Compound 032, 2-(((1S,2R)-2-aminocyclohexyl)amino)-4-((4-(1-((1-(2-(2,6-dioxopiperidin-3-yl)-1,3-dioxoisoindolin-5-yl)pyrrolidin-3-yl)methyl)piperidin-4-yl)phenyl)amino) pyrimidine-5-carboxamide] | < 10 nM

Second part, the molecule after the results:

DC50 | SMILES
< 10 nM | CN1CCN(c2nnc(C(N)=O)c(Nc3ccc(C4CCN(CC5CCN(c6ccc7c(c6)C(=O)N(C6CCC(=O)N(COC(=O)C(C)(C)C)C6=O)C7=O)C5)CC4)cc3)n2)CC1 (centres unmarked) [Compound 063, (3-(5-(3-((4-(4-((6-carbamoyl-3-(4-methylpiperazin-1-yl)-1,2,4-triazin-5-yl)amino)phenyl)piperidin-1-yl)methyl)pyrrolidin-1-yl)-1,3-dioxoisoindolin-2-yl)-2,6-dioxopiperidin-1-yl) methyl pivalate]
< 10 nM | CC(=O)N[C@@H]1CCCN(c2nnc(C(N)=O)c(Nc3ccc(N4CCN(CC5CCN(c6ccc(C(=O)NC7CCC(=O)NC7=O)c(F)c6)CC5)CC4)c(F)c3)n2)C1 (stereo partly drawn) [Compound 093, 3-((R)-3-acetamidopiperidin-1-yl)-5-((4-(4-((1-(4-((2,6-dioxopiperidin-3-yl)carbamoyl)-3-fluorophenyl)piperidin-4-yl)methyl)piperazin-1-yl)-3-fluorophenyl)amino)-1,2,4-triazine-6-carboxamide]
< 10 nM | CC(OC(=O)C(C)(C)C)N1C(=O)CCC(N2C(=O)c3ccc(N4CCC(CN5CCC(c6ccc(Nc7nc(N8CCN(C)CC8)nnc7C(N)=O)cc6)CC5)C4)cc3C2=O)C1=O (centres unmarked) [Compound 070, 1-(3-(5-(3-((4-(4-((6-carbamoyl-3-(4-methylpiperazin-1-yl)-1,2,4-triazin-5-yl)amino)phenyl)piperidin-1-yl)methyl)pyrrolidin-1-yl)-1,3-dioxoisoindolin-2-yl)-2,6-dioxopiperidin-1-yl) ethyl pivalate]
< 10 nM | CC(C)[C@H](N)C(=O)OCN1C(=O)CCC(N2C(=O)c3ccc(N4CCC(CN5CCC(c6ccc(Nc7nc(N8CCCCC8)nnc7C(N)=O)cc6)CC5)C4)cc3C2=O)C1=O (stereo partly drawn) [Compound 073, (3-(5-(3-((4-(4-((6-carbamoyl-3-(piperidin-1-yl)-1,2,4-triazin-5-yl)amino)phenyl)piperidin-1-yl)methyl)pyrrolidin-1-yl)-1,3-dioxoisoindolin-2-yl)-2,6-dioxopiperidin-1-yl) methyl L-valinate]
< 10 nM | CN1CCN(c2nnc(C(N)=O)c(Nc3ccc(N4CCC(CN5CCN(c6ccc(N7CCC(=O)NC7=O)cc6)CC5)CC4)c(F)c3)n2)CC1 [Compound 054, 5-((4-(4-((4-(4-(2,4-dioxotetrahydropyrimidin-1(2H)-yl)phenyl)piperazin-1-yl)methyl)piperidin-1-yl)-3-fluorophenyl)amino)-3-(4-methylpiperazin-1-yl)-1,2,4-triazine-6-carboxamide]
